The values below come from paper PMC4741889, “Ligand-based chemoinformatic discovery of a novel small molecule inhibitor targeting CDC25 dual specificity phosphatases and displaying in vitro efficacy against melanoma cells” (Oncotarget, 2015).

The structures appear in SMILES notation.

Format in all cases: cell-based, human
For experiment [1], the system named is SAN cells. Kind of experiment: Cell cycle analysis by PI flow cytometry, SAN cells. To be noted: 100 μM, 16 and 24 h. On the procedure:
(§1) As CDC25 phosphatases are key cell cycle regulators, the effect of 7 on cell cycle progression was investigated in detail. To this aim, asynchronously growing A2058 and SAN cells were treated at different times with 100 μM compound 7, and then cell cycle analysis was cytofluorimetrically monitored after propidium iodide (PI) incorporation. […] After 16-h incubation with […], cells were mainly and almost equally distributed in G0/G1 and G2/M phases (the ratio between them being 0.96), whereas the cellular population in the S phase was essentially undetectable. […] A similar general picture emerged from the effect of compound 7 on cell cycle progression of SAN cells (Supplementary Figure S3).
(§2) Cells were seeded into 6-well plates at 3 × 10^5 cells/well for 24 h at 37°C; after the addition of 100 μM 7 or 0.5% DMSO as a vehicle control, the incubation of treated cells continued for 16 or 24 h. After each treatment, cells were harvested with trypsin, centrifuged and the pellet was resuspended in phosphate-buffered saline (PBS). For cell cycle analysis, cells were fixed with 70% (v/v) cold ethanol and stored at −20°C for 1 h. […] After incubation at 4°C for 30 min, cells were analyzed with a FACScan flow cytometer (Becton Dickinson) for evaluating the distribution in cell cycle phases or the presence of nuclei with a DNA content lower than the diploid.
On the technique in general: A flow cytometer gives signals particle by particle.

Experiment [2] has as its system A2058 cells. The experiment can be described thus: Cell cycle analysis by PI flow cytometry, A2058 cells. The settings on record: A2058, 100 μM. The procedure: as §1, §2
The test system of experiment [3] is p53 protein levels. Kind of experiment: Western blotting of p53 protein levels in SAN cells. The settings on record: 100 μM, 16 h (not shown). For orientation: A western blot detects proteins with antibodies after separation by electrophoresis.
In experiment [4] the test system is SAN cells. The experiment can be described thus: MTT cell growth rate, SAN melanoma cells. To be noted: 100 μM, 48 h, MTT. On the procedure:
The human melanoma cell line A2058, kindly provided by CEINGE (Naples, Italy), and SAN cells were derived from lymph nodal metastases and grown in DMEM and RPMI 1640, respectively, supplemented with 10% FBS, 2 mM L-glutamine, 100 IU/mL penicillin G, and 100 μg/mL streptomycin in humidified incubator at 37°C under 5% CO2 atmosphere. All cells were split and seeded every three days and used during the exponential phase of growth. Cell treatments were always carried after 24 h from plating.
The MTT assay was used to detect cell proliferation essentially as previously described. Briefly, A2058 and SAN cells were plated in 96-well microtiter plates (100 μL/well) at 4000 and 6000 cells/well, respectively. After 24-h seeding, cells were treated with the selected compounds added at 25, 50 or 100 μM concentration, or with 0.5% (v/v) DMSO as a vehicle control. After 24-h, 48-h or 72-h treatment, and upon the addition of 10 μL of MTT solution in the dark, the plate was incubated for 3 h at 37°C under CO2 atmosphere. After medium aspiration and solubilization of formazan crystals, absorbance was measured at 570 nm, using an ELISA plate reader (Bio-Rad, Milano, Italy).

Experiment [5] deals with caspase-3 activity. Kind of experiment: Caspase-3 enzymatic activity in A2058 cells. To be noted: A2058, 100 μM. The source says: PI incorporation followed by flow cytometric analysis was used to detect the effect of 7 on the number of nuclei with a sub-diploid content, a typical hallmark of apoptosis. A time-dependent increase of apoptosis was evident in both A2058 and SAN cells and in particular, the effect of 7 on cell death program was already evident after 24-h treatment (Figure 7). […] To further investigate on the capacity of 7 to induce apoptosis, the enzymatic activity of caspase-3, the final effector of apoptotic program, was monitored.
To estimate caspase-3 and caspase-9 activity during the treatment with compound 7, the respective enzymatic activities were measured by using caspase-3 and -9 fluorimetric assay kits, according to the manufacturer's protocol, essentially as previously described. Briefly, cells were seeded into 75 cm^2 plates (2 × 10^6 cells/plate) for 24 h at 37°C and then treated with 100 μM 7 or 0.5% DMSO. At the end of each incubation, cells were collected, washed with PBS, and finally lysed at 4°C in the cell lysis buffer. Cell lysates were incubated with 50 μM DEVD-AFC or LEHD-AFC substrates at 37°C for 2 h, to detect caspase-3 or caspase-9 activity, respectively, using a Cary Eclipse fluorescence spectrophotometer (Varian). Excitation and emission wavelengths were set at 400 nm and 505 nm, respectively; both excitation and emission slits were set at 10 nm.

In experiment [6] the test system is CDC25C protein levels. Kind of experiment: Western blotting of CDC25C protein levels in A2058 cells. The settings on record: A2058, 100 μM, from 4 h up to 16 h. On the procedure: To better investigate the effect of this inhibitor at the molecular level, we evaluated if the treatment of A2058 cells with 7 affected also the protein levels of the three CDC25 forms. […] On the other hand, the protein levels of CDC25B were unaffected by treatment of A2058 cells with 7 up to 16 h.
A2058 cells were seeded into 6-well-plates (3 × 10^5 cells/plate) for 24 h at 37°C and then treated at different times with 100 μM compound 7 or 0.5% DMSO. After treatment, cells were harvested, washed with PBS and then lysed in ice-cold modified radio immunoprecipitation assay (RIPA) buffer (50 mM Tris-HCl, pH 7.4, 150 mM NaCl, 1% Nonidet P-40, 0.25% sodium deoxycholate, 1 mM Na3VO4 and 1 mM NaF), supplemented with protease inhibitors and incubated for 30 min on ice. The supernatant obtained after centrifugation at 12,000 rpm for 30 min at 4°C constituted the total protein extract. The protein concentration was determined by the method of Bradford, using bovine serum albumin (BSA) as standard. Equal amounts of total protein extracts were used for Western blot analysis. […] Membranes were then analysed by an enhanced chemiluminescence reaction, using Super Signal West Pico kit (Pierce) according to manufacturer's instruction; signals were visualized by autoradiography.

With `O=C(O)C1CCCCC1c1c2ccc(=O)cc-2oc2cc(O)ccc12` (stereo not shown) [Compound 7, 2-(6-hydroxy-3-oxo-3H-xanthen-9-yl)cyclohexanecarboxylic acid], the “cell distribution in the G2/M phase” value in experiment [1] is “increase of cell distribution in the G2/M phase”. Further, the “ratio between G0/G1 and G2/M” value turned out to be 0.38 in experiment [2] (16 h, vehicle 0.96) and 0.45 in experiment [2] (24 h, untreated 1.23). Besides, the p53 protein level entry in experiment [3] is given as “higher level of this protein”. In addition, in experiment [4], the cell growth rate entry is listed as “significant reduction of cell growth rate”. Besides, the caspase-3 enzymatic activity result in experiment [5] is listed as “significant increase of the enzymatic activity of caspase-3”. In addition, the CDC25C protein levels result in experiment [6] is “progressive and significant reduction of CDC25C protein levels”.
